Test system: HIV-1
Experiment: Viral infectivity test on HeLa P4 cells
Type: cell-based
Description: FIG. 2: Effects of G4 ligands compared with AZT on HIV-1 infectivity using the HeLa P4 cell system for studying the replication of HIV-1. The HeLa P4 cells contain a gene lacZ encoding beta-galactosidase under the control of the viral LTR and whose transcription is activated by the viral protein Tat. The cells are incubated with the ligand then infected with HIV-1. After 24 hours the activity of beta-galactosidase, which is proportional to the infectivity of the virus is then measured on a fluorescence plate reader.
C. Cell lines and viruses: HeLa P4 cells encoding a Tat-inducible β-galactosidase were maintained in DMEM medium (Invitrogen) supplemented with 10% inactivated FCS, 1 mg/ml geneticin (G418, Gibco-BRL), gentamycin. MT4 and H9LaI cells were grown in RPMI 1640 glutamax medium (Invitrogen) supplemented with 10% inactivated FCS. HIV-1 viruses were obtained after 48 h co-culture of MT4 cells (0.5×10^6/ml) and H9Laï cells (1×10^6/ml), chronically infected by HIV-1LaI isolate, in RPMI 1640 glutamax medium supplemented with 10% inactivated FCS, at 37° C. under humidified atmosphere and […]. […]
D. Viral infectivity test: The G4 ligands are incubated in presence of the HelaP4 cells 20 minutes before infection. […] After 24 h, the reaction was measured in a fluorescence microplate reader (Cytofluor II, Applied Biosystems) at 360/460 nm Ex/Em.

Row | Compound | inhibition of viral replication | IC50 (24 h of infection, beta-galactosidase readout) [nM]
1 | C[n+]1ccc(-c2c3nc(c(-c4cc[n+](C)cc4)c4ccc([nH]4)c(-c4cc[n+](C)cc4)c4ccc([nH]4)c(-c4cc[n+](C)cc4)c4nc2C=C4)C=C3)cc1 [Tmpyp4] | weak inhibitors of viral replication | 
2 | Cc1cn([C@H]2C[C@H](N=[N+]=[N-])[C@@H](CO)O2)c(=O)[nH]c1=O [AZT] |  | 40
